Consider three compounds from paper PMC3162021 (PLoS ONE, 2011).

Assay [1] addresses T1, α2 GlyR (Rattus norvegicus, UniProt P22771).
T1 construct: gene Glra2; homomeric α2, expressed in HEK 293 cells; T59, A261, A303 (T59 fits splice form alpha-2A)
T1 sequence (P22771 28-452): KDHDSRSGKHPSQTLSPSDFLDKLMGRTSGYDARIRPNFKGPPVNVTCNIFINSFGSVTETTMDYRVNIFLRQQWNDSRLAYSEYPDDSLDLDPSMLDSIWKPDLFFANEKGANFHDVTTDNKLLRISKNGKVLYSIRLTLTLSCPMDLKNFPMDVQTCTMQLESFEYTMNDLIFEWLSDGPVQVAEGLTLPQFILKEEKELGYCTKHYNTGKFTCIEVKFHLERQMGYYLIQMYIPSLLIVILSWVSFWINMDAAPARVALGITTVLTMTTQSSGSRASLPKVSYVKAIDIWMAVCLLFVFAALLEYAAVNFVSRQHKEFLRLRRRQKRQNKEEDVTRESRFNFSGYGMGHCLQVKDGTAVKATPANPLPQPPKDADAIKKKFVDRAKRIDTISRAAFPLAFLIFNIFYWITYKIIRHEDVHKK
The experiment in a line: whole-cell voltage clamp, modulation of glycine current. The assay is classed as cell-based. Conditions: positive allosteric modulator; glycine at EC10, co-applied; pH 7.4, 20-24 °C.

The target in a further assay is T2, α1 GlyR (Rattus norvegicus, UniProt P07727).
T2 construct: gene Glra1; homomeric α1, expressed in HEK 293 cells from pCI or pcDNA3; A52, I240, G254, S296, K385 (mature numbering); K385 fits the form without the 8-residue loop insert
T2 sequence (P07727 29-449 isoform P07727-2): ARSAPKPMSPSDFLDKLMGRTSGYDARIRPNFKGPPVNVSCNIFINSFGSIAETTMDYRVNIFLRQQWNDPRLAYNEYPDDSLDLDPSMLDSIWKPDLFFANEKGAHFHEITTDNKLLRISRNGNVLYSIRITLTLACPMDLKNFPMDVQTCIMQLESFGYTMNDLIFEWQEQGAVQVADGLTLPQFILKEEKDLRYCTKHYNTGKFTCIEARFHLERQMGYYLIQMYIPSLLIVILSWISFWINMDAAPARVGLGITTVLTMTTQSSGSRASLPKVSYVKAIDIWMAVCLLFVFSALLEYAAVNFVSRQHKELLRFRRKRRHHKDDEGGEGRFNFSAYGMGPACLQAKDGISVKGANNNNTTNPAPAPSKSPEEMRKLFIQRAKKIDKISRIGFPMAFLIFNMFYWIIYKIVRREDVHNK
The description is as above. Conditions: positive allosteric modulator; glycine at EC10, co-applied; pH 7.4, 20-24 °C. It counts as cell-based.

In assay [2] the target is T1, α2 GlyR. The assay is described as above. The assay is classed as cell-based. The following applies: allosteric inhibitor; glycine at EC10, co-applied; pH 7.4, 20-24 °C.
In the next assay the test system is T3, α1α2.
T3 construct: gene Glra1; one fused subunit: α1 upstream of the TM3-4 loop (ECD to TM3), then α2 intracellular loop plus TM4; HEK 293
The experiment in a line: whole-cell voltage clamp, concentration-response. It counts as cell-based, Rattus norvegicus. Conditions: agonist; pH 7.4, 20-24 °C, -60 mV. The text has this: whole-cell voltage clamp, concentration-response on α1α2

Assay [3] has as its target T4, α2 GlyR (Rattus norvegicus, UniProt P22771, A288G).
T4 construct: gene Glra2; homomeric α2, expressed in HEK 293 cells; T59, A261, A303 (T59 fits splice form alpha-2A)
T4 sequence (P22771 28-452 A288G): T1 sequence (P22771 28-452) with A261G
The experiment in a line: whole-cell voltage clamp, concentration-response. It counts as cell-based. From the text: (§1) whole-cell voltage clamp, concentration-response on α2 GlyR

For assay [4], the target named is T5, α2 GlyR (Rattus norvegicus, UniProt P22771, A288G/A330S/T86A).
T5 construct: gene Glra2; homomeric α2, expressed in HEK 293 cells; T59, A261, A303 (T59 fits splice form alpha-2A)
T5 sequence (P22771 28-452 T86A/A288G/A330S): T1 sequence (P22771 28-452) with T59A, A261G, A303S
The experiment in a line: whole-cell voltage clamp, concentration-response. The assay is classed as cell-based.
From the text: as §1

Assay [5] concerns the target T6, α2 GlyR (Rattus norvegicus, UniProt P22771, T86A).
T6 construct: gene Glra2; homomeric α2, expressed in HEK 293 cells; T59, A261, A303 (T59 fits splice form alpha-2A)
T6 sequence (P22771 28-452 T86A): T1 sequence (P22771 28-452) with T59A
Kind of assay: whole-cell voltage clamp, concentration-response. It counts as cell-based.
From the text: as §1

In assay [6] the target is T7, α2 GlyR (Rattus norvegicus, UniProt P22771, A288G/T86A).
T7 construct: gene Glra2; homomeric α2, expressed in HEK 293 cells; T59, A261, A303 (T59 fits splice form alpha-2A)
T7 sequence (P22771 28-452 T86A/A288G): T1 sequence (P22771 28-452) with T59A, A261G
The experiment in a line: whole-cell voltage clamp, concentration-response. The assay is classed as cell-based.
From the text: as §1

Assay [7] addresses T1, α2 GlyR. The experiment in a line: whole-cell voltage clamp, concentration-response. It counts as cell-based.
From the text: as §1

A further assay deals with T8, α2α1.
T8 construct: gene Glra2; one fused subunit: α2 upstream of the TM3-4 loop (ECD to TM3), then α1 intracellular loop plus TM4; HEK 293
The experiment in a line: whole-cell voltage clamp, concentration-response. It counts as cell-based, Rattus norvegicus. Conditions: agonist; pH 7.4, 20-24 °C, -60 mV. The text has this: whole-cell voltage clamp, concentration-response on α2α1

Positions count from the first letter of the chain named.

As for `CCCCC/C=C\C/C=C\C/C=C\C/C=C\CCCC(=O)NCCO` [AEA], the “% potentiation at 10 μM” value at α2 GlyR [1] is listed as “showed consistent positive allosteric modulation of all the GlyR isoforms”; on α1 GlyR, “AEA, anandamide”.
As to `CCCCC/C=C\C/C=C\C/C=C\C/C=C\CCCC(=O)NCC(=O)O` [NA-Gly], the “% potentiation at 10 μM” value on α1 GlyR was determined as 101±11%. Besides, the “% change of current at 10 μM” value at α2 GlyR [2] was −56±5%.
With `NCC(=O)O` [glycine], the EC50 (usually the concentration that produces a half-maximal response) stood at 86 ± 3 µM in the assay with α1α2; 217 ± 6 µM on α2 GlyR [3]; 102 ± 2 µM at α2 GlyR [4]; 63 ± 1 µM on α2 GlyR [5]; 76 ± 2 µM on α2 GlyR [6]; 120 ± 6 µM on α2 GlyR [7]. This compound gave an EC50 with α2α1 of 111 ± 1 µM.
